Drawing on patent US4728658A, “Pyridine derivatives” (John Wyeth & Brother Limited, priority 1984, dated 1988), this text covers inhibition and antisecretory activity for 11 compounds.

Where two headings read alike, the source gives them in different places.

The target of this experiment is T1, H^+ /K^+ ATPase (Oryctolagus cuniculus, UniProt P27112).
T1 construct: Rabbit gastric glands are isolated from gastric mucosa; from tissue; host or cells: rabbit isolated gastric glands (gastric mucosa, corpus region of the stomach)
T1 sequence (P27112 whole entry): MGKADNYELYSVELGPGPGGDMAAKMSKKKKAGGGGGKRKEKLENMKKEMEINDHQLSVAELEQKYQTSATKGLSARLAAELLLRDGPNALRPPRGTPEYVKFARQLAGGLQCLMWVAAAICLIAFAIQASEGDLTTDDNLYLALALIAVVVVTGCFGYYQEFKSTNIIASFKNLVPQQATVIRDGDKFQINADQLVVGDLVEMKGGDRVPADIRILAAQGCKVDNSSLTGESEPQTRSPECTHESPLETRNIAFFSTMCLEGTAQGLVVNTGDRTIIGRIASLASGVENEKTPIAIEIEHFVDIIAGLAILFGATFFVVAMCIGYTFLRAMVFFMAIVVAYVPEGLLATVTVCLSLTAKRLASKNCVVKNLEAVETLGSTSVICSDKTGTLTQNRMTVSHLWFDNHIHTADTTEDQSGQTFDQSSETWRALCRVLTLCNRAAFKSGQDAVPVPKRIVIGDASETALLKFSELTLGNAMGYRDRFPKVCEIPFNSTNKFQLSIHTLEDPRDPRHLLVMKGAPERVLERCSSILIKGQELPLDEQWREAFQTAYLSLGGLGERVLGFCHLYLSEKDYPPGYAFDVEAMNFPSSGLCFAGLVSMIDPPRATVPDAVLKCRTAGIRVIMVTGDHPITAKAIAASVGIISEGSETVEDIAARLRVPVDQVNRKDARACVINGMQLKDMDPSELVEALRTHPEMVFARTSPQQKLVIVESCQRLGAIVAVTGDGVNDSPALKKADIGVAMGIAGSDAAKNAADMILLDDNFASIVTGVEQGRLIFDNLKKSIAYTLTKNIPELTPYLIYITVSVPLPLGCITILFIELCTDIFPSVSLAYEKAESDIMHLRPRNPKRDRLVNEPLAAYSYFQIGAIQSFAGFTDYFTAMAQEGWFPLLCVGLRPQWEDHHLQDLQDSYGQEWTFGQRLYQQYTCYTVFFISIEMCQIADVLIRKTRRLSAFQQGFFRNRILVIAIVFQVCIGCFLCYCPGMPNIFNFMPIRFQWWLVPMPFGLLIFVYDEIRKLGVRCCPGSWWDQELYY
T1 sequence (P18597 whole entry partner): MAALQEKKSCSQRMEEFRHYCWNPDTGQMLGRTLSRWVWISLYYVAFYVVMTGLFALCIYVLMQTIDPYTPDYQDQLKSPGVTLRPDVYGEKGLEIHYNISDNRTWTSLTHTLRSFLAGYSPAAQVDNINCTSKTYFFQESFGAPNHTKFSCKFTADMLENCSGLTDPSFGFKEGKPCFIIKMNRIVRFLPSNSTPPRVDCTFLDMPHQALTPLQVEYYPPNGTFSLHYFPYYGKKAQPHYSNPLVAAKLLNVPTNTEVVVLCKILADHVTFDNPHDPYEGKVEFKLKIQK
Nature of the experiment: Inhibition of 14C-aminopyrine uptake in rabbit isolated gastric glands stimulated by DBcAMP or high K+ (anti-secretory activity). The format is cell-based. The conditions noted are these: for inhibition at 100 µM: 10^-4 M, % inhibition of maximum response to secretagogue; for antisecretory activity: result in words in the introduction, test not named. How it is done:
Compounds of formula I may be tested for anti-secretory activity by their ability to inhibit the highly specific proton transporting enzyme H^+ /K^+ ATPase.
Potential H^+ /K^+ ATPase inhibitors are evaluated by a technique involving the measurement of aminopyrine accumulation in rabbit isolated gastric glands. Aminopyrine accumulates in acid-secreting cells; therefore, uptake of aminopyrine is increased by secretagogues and an inhibitor of acid secretion will reduce the response to one or more secretagogues depending upon its site of action.
The following test procedure is used:
Rabbit gastric glands are isolated from gastric mucosa from the corpus region of the stomach by a method based on one described by Berglindh T., Obrink K. J., Acta Physiol. Scand.
Compounds are tested at a concentration of 10^-4 M, for their ability to inhibit ^14 C-aminopyrine uptake in gastric glands, stimulated by DBcAMP and high K^+ respectively. Results are expressed as the % inhibition of the maximum response to the secretagogue induced by the test compound.

Setting [1] is: 14C-aminopyrine uptake in rabbit gastric glands stimulated by DBcAMP, read-out: % Inhibition to stimulation by: DBcAMP.
[2] abbreviates: 14C-aminopyrine uptake in rabbit gastric glands stimulated by high K^+, read-out: % Inhibition to stimulation by: K^+.

As for `Nc1ccccc1NC(=O)c1cc[n+]([O-])cc1` [N-(2-aminophenyl)pyridine-4-carboxamide-1-oxide], the antisecretory activity entry is reported as “exhibited antisecretory activity”. Also, the inhibition – broadly, the relative decrease from the control value, in per cent – at 100 µM under setting [1] was found to be 106%. Further, the inhibition at 100 µM under setting [2] was 130%.
Regarding `O=C(Nc1ccccc1Cl)c1cc[n+]([O-])cc1` [2-chlorophenyl, reference compound], the antisecretory activity entry was “not active”.
Same read-out and setting: the same measure for `O=C(Nc1ccccc1)c1cc[n+]([O-])cc1` [phenyl, reference compound]: “not active”.
Take `Nc1ccccc1NC(=O)c1ccncc1` [N--(2-aminophenyl)pyridine-4-carboxamide, N-(2-aminophenyl)-4-pyridinecarboxamide]: the inhibition at 100 µM under setting [2] amounted to 54%.
For the compound `Nc1cccc(NC(=O)c2cc[n+]([O-])cc2)c1` [Example 3-amino, reference compound], the antisecretory activity entry was “inactive”.
For `O=C(Nc1ccc(Cl)c(C(F)(F)F)c1)c1cc[n+]([O-])cc1` [N-[4-chloro-3-(trifluoromethyl)phenyl]-4-pyridinecarboxamide-1-oxide], under setting [2], the inhibition at 100 µM amounted to 168%.
`Nc1cc(Cl)c(Cl)cc1NC(=O)c1cc[n+]([O-])cc1` [N-(2-amino-4,5-dichlorophenyl)-4-pyridinecarboxamide-1-oxide]: the inhibition at 100 µM under setting [2] amounted to 36%.
As to `O=C(Nc1ccc([N+](=O)[O-])cc1)c1cc[n+]([O-])cc1` [N-(4-nitrophenyl)pyridine-4-carboxamide-1-oxide], the inhibition at 100 µM was found to be 33% under setting [1] and 84% under setting [2].
Take `Nc1ccc(NC(=O)c2cc[n+]([O-])cc2)cc1` [4-amino, reference compound]: the antisecretory activity result was “inactive”.
`O=C(Nc1ccc(Cl)cc1)c1cc[n+]([O-])cc1` [N-(4-chlorophenyl)-4-pyridinecarboxamide-1-oxide]: the antisecretory activity result is given as “exhibited antisecretory activity”. Besides, the inhibition at 100 µM under setting [1] was determined as 22%. Also, the inhibition at 100 µM under setting [2] was found to be 32%.
For `O=C(Nc1ccc(Cl)cc1NC(=O)c1cc[n+]([O-])cc1)c1cc[n+]([O-])cc1` [4-Chloro-N,N'-1,2-phenylenebis(4-pyridinecarboxamide-1-oxide)], the inhibition at 100 µM runs as follows: under setting [1], 20.5%; under setting [2], 27%.
